# Results published in patent US20040097521A1, “Clinical treatment” (priority 2000, published 2004).
# How the values were obtained:
# [1] = test system: localized psoriatic plaques; test: Local treatment of psoriatic plaques in volunteers with NAC or di-NAC cream; format: in vivo, human; conditions: base-cream 10-20 weight %; for outcome of prolonged treatment: weeks to a few months; for most commonly reported side effect: with occlusive bandage
# Text: Five informed volunteers displaying localized psoriatic plaques were locally treated with a base-cream containing 10-20 weight % of NAC or di-NAC. The cream had been applied every night for variable periods—from weeks to a few months—with or without occlusive bandage. The skin of the patient was normally washed between each daily treatment. No other drugs were contemporarily used.
# [2] = test system: primary normal human epidermal keratinocytes (NHEK); test: Effects of NAC or di-NAC on primary normal human epidermal keratinocytes (NHEK) in culture; format: cell-based; conditions: for cell-cell junctions / concentration of E-cadherins / tubulin expression: 2 mM; for cell-cell junctions / concentration of E-cadherins / tubulin expression / concentration for complete suppression of cell proliferation: 3 days; for concentration for complete suppression of cell proliferation: 1 to 10 mM; for toxic side effects: summary
# Text: Primary normal human epidermal keratinocytes (NHEK) obtained from Clonetics Inc. (San Diego, Calif., U.S.A.) were cultivated in the medium provided by the supplier. These cells have a limited life-span of about 15 days in culture and undergo a normal differentiation process of epidermal keratinocytes with a final enucleation and exfoliation. After inoculation the cells acquire a polygonal morphology cell-cell adhesions. The cytoskeleton morphology is quite organized, mainly at the cell borders.
# NHEK cells were treated with various millimolar concentrations of NAC or di-NAC, ranging from 1 to 10 mM. The substances were added to the culture medium 24 hours after inoculation. After 3 days of culture in the presence of 2 mM of NAC or di-NAC the cells were analysed for the following marker parameters: […]
# [3] = test system: 4NQO-induced rat malignant oral keratinocytes; test: 4NQO-induced rat malignant oral keratinocytes transplanted orthotopically to athymic mice; format: in vivo; conditions: for potential to metastasise: differentiated rat malignant oral keratinocytes, versus untreated
# Text: The effects of NAC or di-NAC on the metastatic capacity of clonal populations of 4NQO-induced rat malignant oral keratinocytes were examined after orthotopic transplantation to athymic mice. Polygonal cells and spindle cells formed well-differentiated squamous cell carcinomas (keratin positive and vimentin negative) and undifferentiated spindle cell tumors (keratin negative and vimentin positive), respectively, in all animals at the site of inoculation (floor of mouth).
# [4] = test system: 1,2-dimethylhydrazine (DMH)-induced large intestinal tumors; test: DMH-induced large intestinal tumors in rats; format: in vivo, male Sprague-Dawley rats
# Text: The effects of daily NAC treatment or intermittent NAC treatments on intestinal tumors, which had been induced by treating male Sprague-Dawley rats with 1,2-dimethylhydrazine (DMH), were investigated.
# [5] = test system: tyrosine protein kinase (TPK); test: AOM-induced rat colon cancer model, TPK activity; format: in vivo; conditions: colonic mucosal and tumor, P<0.01
# Description: (§1) Since the efficacy of NAC against colon cancer is significant, the mechanisms of inhibiting colon carcinogenesis were explored by investigating the activities of protein kinase C (PKC), tyrosine protein kinase (TPK), and diacylglycerol kinase (DGK) as well as the 8-isoprostane levels in colonic mucosa and tumor tissues in an azoxy-methane (AOM)-induced rat colon cancer model.
# (§2) At seven weeks of age corresponding groups of rats were injected s.c. with azoxymethane (AOM; 15 mg/kg body weight, once weekly for 2 weeks), and different experiments were continued until 38 weeks after the second AOM treatment. Then, the rats were then sacrificed and colonic mucosal as well as tumor samples were evaluated for PKC, TPK, DGK, and 8-isoprostane levels.
# [6] = test system: myeloma type tumor cells; conditions: in vitro; cited from earlier work
# [7] = test system: protein kinase C (PKC); test: AOM-induced rat colon cancer model, PKC activity; format: in vivo; conditions: colonic mucosa and tumors, P<0.01
# Description: as §1, §2
# [8] = test system: 8-isoprostane; test: AOM-induced rat colon cancer model, 8-isoprostane levels; format: in vivo; conditions: colonic tumors, versus control
# Description: as §1, §2
# [9] = test system: human colon carcinoma cells (CaCo2); test: Effects of NAC and di-NAC on human colon carcinoma cells (CaCo2) in culture; format: cell-based; conditions: for local concentration for maximum inhibition of proliferation (no growth) / time to differentiate when treated: CaCo2; for toxic side effects: CaCo2, summary
# Description: An established cell line of human colon carcinoma cells was used (CaCo2). CaCo2 is a proliferating human colon carcinoma cell line displaying irregular morphology, forming multiple cell layers with scarce microvillous structures and large intercellular spaces.
# The CaCo2 cells were treated with various millimolar concentrations of NAC, ranging from 2 to 10 mM. NAC was added to the culture medium 24 hours after inoculation of the cells. After 3 days of culture in the presence of NAC the cells were analyzed for the following marker parameters: […]
# [10] = cited from earlier work
# [11] = test system: diacylglycerol kinase (DGK); test: AOM-induced rat colon cancer model, DGK activity; format: in vivo; conditions: P<0.01
# Description: as §1, §2
# [12] = test system: DHD/K12-PROb colon adenocarcinoma; test: Colon adenocarcinoma (DHD/K12-PROb cells s.c.) in BD-IX rats; format: in vivo; conditions: weekly injection
# Description: In this experimental model BD-IX rats were divided into four groups: Groups G1 and G2, designated “cancer groups”, were used to study the effects of NAC on the progression of colon cancer, and Groups G3 and G4, designated “toxicity groups”, were used to study the effects of the treatment on metabolic processes and the parenchyma. DHD/K12-PROb cells were injected subcutaneously into the chest of Group G1 and G2 animals. From 1 to 13 weeks after inoculation the animals in Groups G2 and G4 received a weekly injection of NAC. The animals in Groups G1 and G3 received no treatment.
# [13] = test system: human colon carcinoma cells (CaCo2); test: Effects of NAC and di-NAC on human colon carcinoma cells (CaCo2) in culture; format: cell-based; conditions: CaCo2, di-NAC treatment
# [14] = test system: arteriosclerosis; conditions: WHHL rabbits; cited from earlier work
compound,measurement,setting,value
"CC(=O)N[C@@H](CS)C(=O)O [NAC, N-acetyl-L-cysteine]",outcome of prolonged treatment,[1],complete remission of all symptoms
same,most commonly reported side effect,[1],local hitching
same,local concentration for maximum inhibition of proliferation (no growth),[2]; NHEK,about 1 mM
same,time to differentiate when treated,[2]; NHEK,3 days
same,cell-cell junctions,[2]; NHEK,increased number
same,concentration of E-cadherins,[2]; NHEK,increased
same,tubulin expression,[2]; NHEK,reduced
same,concentration for complete suppression of cell proliferation,[2]; NHEK,2 mM
same,cell viability,"[2]; NHEK, all doses, up to 10 mM",unaffected
same,toxic side effects,[2]; NHEK,no toxic side effects
same,apoptosis / necrosis,"[2]; NHEK, up to 10 mM",Neither apoptosis nor necrosis was observed
same,concentration at which keratinocytes completely differentiate,[2],1 mM
same,minimum dose required to accelerate differentiation of normal keratinocytes,[2],0.5 mM
same,potential to metastasise,[3],decreased potential to metastasise
same,inhibition of clones of polygonal cells,[3]; exogenous NAC,markedly inhibited
same,inhibition of spindle cells,[3]; exogenous NAC,inhibited
same,large intestinal tumor mass index,"[4]; NAC-treated group, p<0.001 vs control",0.04
same,adenocarcinomas in the colons,[4]; daily NAC treatment,no adenocarcinomas were present
same,large intestinal tumor burden,"[4]; intermittent NAC treatment, p=0.001 vs control",1 tumors/treatment group
same,TPK activities,[5],significantly suppressed
same,activity against myeloma type tumor cells,[6],tumor proliferation inhibitory activity
same,Ca2+ dependent and independent PKC activities,[7],significantly inhibited
same,8-isoprostane levels,[8],lower levels
same,local concentration for maximum inhibition of proliferation (no growth),[9],about 1 mM
same,time to differentiate when treated,[9],3 days
same,apoptosis / necrosis,"[9]; CaCo2, 2 to 10 mM, 3 days",Neither apoptosis nor necrosis was observed
same,concentration of maximum effect on decrease of cell proliferation,"[9]; CaCo2, 2 to 10 mM, 3 days of culture",2 mM
same,cell-cell adhesion structures,"[9]; CaCo2, 3 days of culture",increased number
same,tubulin expression,"[9]; CaCo2, 3 days of culture",strongly reduced
same,cell viability,"[9]; CaCo2, all doses added (2 to 10 mM), 3 days",unaffected
same,toxic side effects,[9],without any detectable toxic side effects
same,concentration at which reversion of colon cancer cells is induced,[9],1 mM
same,concentration at which colon carcinoma completely differentiate,[9],5 mM
same,side effects when used clinically,"[10]; even after high doses, such as 10 g/day",no significant side effects
same,clearance,[10]; in vivo,relatively rapid
same,side effects after intravenous injection,"[10]; paracetamol poisoning, 10 grams i.v. in 15 minutes, then half of the dose in 30 min",without any reported side effects
same,DGK activity,[11],significant increased
same,tumor growth,[12]; female and male rats,significantly slower
same,life span,[12]; 1 to 13 weeks after inoculation,extended life span
"CC(=O)N[C@@H](CSSC[C@H](NC(C)=O)C(=O)O)C(=O)O [di-NAC, N,N′-diacetyl-L-cystine]",E-cadherin expression,[13],increased
same,proliferation,[13],decreased proliferation
same,outcome of prolonged treatment,[1],complete remission of all symptoms
same,most commonly reported side effect,[1],local hitching
same,local concentration for maximum inhibition of proliferation (no growth),[2]; NHEK,about 1 mM
same,time to differentiate when treated,[2]; NHEK,3 days
same,cell-cell junctions,[2]; NHEK,increased number
same,concentration of E-cadherins,[2]; NHEK,increased
same,tubulin expression,[2]; NHEK,reduced
same,concentration for complete suppression of cell proliferation,[2]; NHEK,2 mM
same,toxic side effects,[2]; NHEK,no toxic side effects
same,concentration at which keratinocytes completely differentiate,[2],1 mM
same,minimum dose required to accelerate differentiation of normal keratinocytes,[2],0.5 mM
same,potential to metastasise,[3],decreased potential to metastasise
same,effect on arteriosclerosis,[14],inhibits arteriosclerosis
same,local concentration for maximum inhibition of proliferation (no growth),[9],about 1 mM
same,time to differentiate when treated,[9],3 days
same,toxic side effects,[9],without any detectable toxic side effects
same,concentration at which reversion of colon cancer cells is induced,[9],1 mM
same,concentration at which colon carcinoma completely differentiate,[9],5 mM
